According to patent publication US8883718B2, “Treating cancer” (Theryte Limited, priority 2008, dated 2014):
[ ]: non-standard residue; d: D form.

Experiments:
[1] = system: normal human diploid fibroblasts; assay: MTS cell viability assay, fibroblasts; assay type: cell-based; details: 12.5 to 100 μM, 2-4 weeks
Description: (§1) The effect of these peptides was tested on both human fibroblasts and H460 human non-small cell […] cancer cells at doses in the range 12.5 to 100 μM. The peptides were tested in vitro by exposure to 100 H460 human non-small cell lung cancer cells, or short term cultures of normal human diploid fibroblasts, in 200 ul of Ham's F12 tissue culture medium supplemented with 10% FCS. Cells were set up in 100 ul on day 0 and 24 hours later a further 100 ul of the same medium containing ×2 the appropriate concentration of peptide over a range of 12.5-100 uM was added. The cells were then incubated at 37° C., 5% CO2 in an humidified incubator for 2-4 weeks.
(§2) Cell viability was measured by an MTS assay (CellTiter 96^R Non-Radioactive Cell Proliferation Assay. Promega Corporation, 2800 Woods Hollow Road, Madison Wis. 53711-5399 USA). The original form of this assay was described by Mosmann (J. Immunol. Meth. 65; 55-63. 1983) and gives a colorometric reading whose intensity depends on the conversion, by viable cells, of a tetrazolium salt into a coloured formazan which is easily quantified by colorimetric reading of a 96 well assay plate.

[2] = system: H460 human non-small cell lung cancer cells; assay: MTS cell viability assay, H460 cells; assay type: cell-based; details: H460, 12.5 to 100 μM, 2-4 weeks
Description: as §1, §2

[3] = system: Cdk1 compared to Cdk4 in RT112 cells; assay: sequential Western blots of RT112 cells after peptide exposure; assay type: cell-based, human; details: over 15 days
From the text: Peptides were introduced at day 0 and left in-situ throughout the experiment.
In a clinical context this might provide a biomarker of therapeutic efficacy. […] Such a homogeneous therapeutic response is in marked contrast to the wide range of variability in dose response of different cancer cell lines seen with conventional chemotherapeutic agents^24. Cancer cells both underwent successful mitosis and died (FIG. 3f) or died in interphase (FIG. 7d). […] MRC-hTERT fibroblasts (FIG. 7c) and short term cultures of normal diploid human keratinocytes (FIG. 3h) were not killed by 200 μM THR53.

[4] = system: RT112 human bladder cancer cells; assay: clonogenic assay on RT112 cells; assay type: cell-based
Description: (§3) Normal diploid human fibroblasts in short term culture were unaffected (FIG. 2b). […] However, PRGPRP (SEQ ID NO: 2) is only effective at killing RT112 bladder cancer cells at a concentration of 5.0 mM. Because of concern that such high peptide doses might cause artefactual, non-specific effects, structure/function studies were carried out.
(§4) The first experiments were carried out on cyc-[[…]] (THR 53, (SEQ ID NO: 9)), see FIG. 4. Whilst the 96 well assays described in Example 3 are suitable for initial screening of small amounts of peptide material the long incubation periods in dense culture do themselves compromise cell viability to some extent. […] In clonogenic assays, (previously described by Warenius et al Br J Cancer (2000) 83(8), 1048-1059) single cell suspensions of 100 cells are plated in plentiful volumes of 2 ml of Ham's F12 tissue culture medium supplemented with 10% FCS and incubated for 15, 20 or 25 days. A high percentage of the plated cells (40-60% in the case of H460) go through repeated doublings to yield colonies of 200 or more cells which can be easily visualized by the naked eye and counted under a low power lens when stained by giemsa stain.

[5] = system: H460 human non-small cell lung cancer cells; assay: clonogenic assay on H460 cells; assay type: cell-based
Description: as §4
The efficacy of THR53 was compared to Ac-PRGPRP-NH2 (SEQ ID NO: 2) using a clonogenic assay.

[6] = system: MGHU-1 Human transitional bladder cancer cells; assay: in-vitro culture of MGHU-1 bladder cancer cells, cell death observed morphologically; assay type: cell-based
Description: as §3
5 mM was required to produce 100% lethality in in vitro experiments on RT 112 (FIG. 2a) or MGHU-1 human bladder cancer cells. This limits the applicability of PRGPRP (SEQ ID NO: 2) to therapy even though it has selected killing activity in human cancer cells but not normal human fibroblasts.

[7] = system: Normal diploid human fibroblasts; assay: normal diploid human fibroblasts in short term culture; assay type: cell-based
Description: as §3

[8] = system: RT112 bladder cancer cells; assay: Cell killing by cyclic peptides, RT112 (Table 2); assay type: cell-based, human; design: key: - - - = No cell killing; details: 100 μM
Description: (§5) Table 2 lists cyclic peptides including the PRGPRP (SEQ ID NO:2) sequence which have no effect on RT112 bladder cancer cells at a concentration of 100 μM.

Fibroblasts = assay: Cell killing by cyclic peptides, fibroblasts (Table 2); assay type: cell-based; design: key: - - - = No cell killing
Description: as §5

human cancer cells = assay: clonogenic assays of human cancer cells exposed to PRGPRP motif in cyclic amphiphilic cassettes; assay type: cell-based; details: FIG. 6i
Description: FIGS. 6(h) and (i) show clonogenic assays of human cancer cells exposed to the PRGPRP (SEQ ID NO: 2) motif in cyclic amphiphlic cassettes. THR53 (SEQ ID NO: 9, cyc-[[…]]); THR53C (SEQ ID NO: 23, cyc-[[…]], a control peptide); THR54 (SEQ ID NO: 10, cyc-[[…]]); THR79 (SEQ ID NO: 11, cyc-[PRGPRPvalklalklal]).
as §4
The effectiveness of cyclic peptides comprising amphiphilic sequences is further illustrated in FIGS. 6h and 6i, showing the results of a clonogenic assay using the peptides THR53 cyc-[[…]] (SEQ ID NO: 9); THR53C, cyc-[[…]] […]

cancer cell = assay: effect of amino acid stereochemistry on cancer cell-killing activity; assay type: cell-based
From the text: The peptides used were: THR75 (SEQ ID NO: 24, cyc-[PRGPRPValklalklal]); THR77 (SEQ ID NO: 25, cyc-[PRGPRPValklalklaL]); THR78 (SEQ ID NO: 26, cyc-[[…]lklalklaL]; THR79 (SEQ ID NO: 11 cyc-[PRGPRPvalklalklal]). Upper case denotes the L isomer of the amino acids and lower case denotes the D isomer.
It has also been discovered that the stereochemistry of the amino acids in the peptide sequence is relevant to efficacy. Analogues of THR54 (SEQ ID NO: 10) in which certain L-amino-acids have been replaced with D-amino-acids were prepared.
This was THR79 in which was approximately 2-4 times as active as THR54.

[9] = system: MGHU-1 Human transitional bladder cancer cells; details: cited from earlier work

Question: With “Ac-PRGPRPVKLALKLALKAL-NH2 [THR51, linear peptide outside the scope of the invention]” as the substance, how does the “killing of fibroblasts (cell viability, MTS)” value [1] read?
Answer: Its value is “equally as well killed”.

Question: And the “cancer cell killing (cell viability, MTS)” value [2]?
Answer: Its value is “improvement in cancer cell killing over PRGPRP”.

Question: For “Ac-PRRPGPVKLALKLALKAL-NH2 [THR51C, control for THR51 in which one arginine was switched with a glycine, reference compound]”, which “killing of fibroblasts (cell viability, MTS)” value [1] is on record?
Answer: Its value is “non-specific killing”.

Question: With “Ac-Pro-Arg-Arg-Pro-Gly-Pro-NH2 (Ac-PRRPGP-NH2)” as the substance, how does the “change in Cdk1 compared to Cdk4” value [3] read?
Answer: Its value is “not seen”.

Question: And the “cancer cell lethality / activity in clonogenic assay” value ([4]; RT112)?
Answer: The value was “inactive”.

Question: Which results are given for “Ac-Pro-Arg-Gly-Pro-Arg-Pro-NH2 (Ac-PRGPRP-NH2) [end-capped hexameric peptide according to WO2005/123760]”?
Answer: effect on H460 cell survival in clonogenic assay ([5]; 1 to 10 mM concentration): limited effect; effect on H460 non-small cell lung cancer, clonogenic assay ([5]; H460): no effect; change in Cdk1 compared to Cdk4 [3]: Progressive increase; cell death observed morphologically in-vitro ([6]; 5.0 mM, 25 days after exposure): Complete cell death; concentration required to produce 100% lethality ([6]; MGHU-1, in vitro): 5 mM; effect on normal diploid human fibroblasts in short term culture ([7]; 5.0 mM): unaffected; cancer cell lethality / activity in clonogenic assay ([4]; RT112): Cancer cell lethality was confirmed; concentration effective at killing RT112 bladder cancer cells ([4]; RT112): 5.0 mM; concentration required to produce 100% lethality ([4]; RT 112, in vitro): 5 mM

Question: With “Cyc-[AAAGGGPRGPRPGGGAAA] (cyclic; Cyclic peptide; /note=“cyclic peptide”)” as the substance, how does the “Cell Killing RT112” value [8] read?
Answer: Its value is “- - -”.

Question: And the “Cell Killing Fibroblasts” value (Fibroblasts)?
Answer: The value was “- - -”.

Question: For “Cyc-[AAGPGGPRGPRPGGPGAA] (cyclic; Cyclic peptide; /note=“cyclic peptide”)”, which “Cell Killing RT112” value [8] is on record?
Answer: Its value is “- - -”.

Question: What about the “Cell Killing Fibroblasts” value (Fibroblasts) of the same substance?
Answer: The value was “- - -”.

Question: For “Cyc-[GGGGGGPRGPRPGGGGGG] (cyclic; Cyclic peptide; /note=“cyclic peptide”)”, which “Cell Killing RT112” value [8] is on record?
Answer: Its value is “- - -”.

Question: And the “Cell Killing Fibroblasts” value (Fibroblasts)?
Answer: Its value is “- - -”.

Question: With “Cyc-[GGGGPRGPRPGGGGPRGPRPVPRGPRPV] (cyclic; Cyclic peptide; /note=“cyclic peptide”)” as the substance, how does the “Cell Killing RT112” value [8] read?
Answer: Its value is “- - -”.

Question: And the “Cell Killing Fibroblasts” value (Fibroblasts)?
Answer: The value was “- - -”.

Question: With “cyc-[FPPRRPGPVKLALKLALK] (cyclic; Control peptide; /note=“cyclic peptide”) [THR53C, a control peptide]” as the substance, how does the “arginine-related structure function relationship in cyclic amphiphilic compounds (control peptide)” value (human cancer cells) read?
Answer: The value was “structure function relationship was retained”.

Question: For “cyc-[PRGPRPVALKLALKLAL] (cyclic; Cyclic peptide; /note=“cyclic peptide”) [THR54]”, which cancer cell-killing activity (cancer cell) is on record?
Answer: Its cancer cell-killing activity is “active”.

Question: Which “effect on MGHU1 cells as disclosed in WO2005/123760” value [9] does the source give for “cyc-[PRGPRPVPRGPRPVPRGPRPV] (cyclic; Cyclic peptide; /note=“cyclic peptide”) [cyclic peptide disclosed in WO2005/123760]” here?
Answer: The value was “caused morphological changes”.

Question: What about the “killing of MGHU1 cells” value [6] of the same substance?
Answer: The value was “did not kill”.

Question: And the “effect on normal fibroblasts” value [7]?
Answer: Its value is “markedly stimulate”.

Question: With “cyc-[PRGPRPValklalklal] (cyclo(PRGPRPV[dA][dL][dK][dL][dA][dL][dK][dL][dA][dL]); SMILES CC(C)C[C@H]1NC(=O)[C@@H](C)NC(=O)[C@H](C(C)C)NC(=O)[C@@H]2CCCN2C(=O)[C@H](CCCNC(=N)N)NC(=O)[C@@H]2CCCN2C(=O)CNC(=O)[C@H](CCCNC(=N)N)NC(=O)[C@@H]2CCCN2C(=O)[C@@H](CC(C)C)NC(=O)[C@@H](C)NC(=O)[C@@H](CC(C)C)NC(=O)[C@@H](CCCCN)NC(=O)[C@@H](CC(C)C)NC(=O)[C@@H](C)NC(=O)[C@@H](CC(C)C)NC(=O)[C@@H](CCCCN)NC1=O) [THR 75]” as the substance, how does the “cancer cell-killing activity at 100 uM” value (cancer cell; 100 uM concentration) read?
Answer: Its value is “remove the activity”.

Question: With “cyc-[PRGPRPvalklalklal] (cyclo(PRGPRP[dV][dA][dL][dK][dL][dA][dL][dK][dL][dA][dL]); SMILES CC(C)C[C@H]1NC(=O)[C@@H](C)NC(=O)[C@@H](C(C)C)NC(=O)[C@@H]2CCCN2C(=O)[C@H](CCCNC(=N)N)NC(=O)[C@@H]2CCCN2C(=O)CNC(=O)[C@H](CCCNC(=N)N)NC(=O)[C@@H]2CCCN2C(=O)[C@@H](CC(C)C)NC(=O)[C@@H](C)NC(=O)[C@@H](CC(C)C)NC(=O)[C@@H](CCCCN)NC(=O)[C@@H](CC(C)C)NC(=O)[C@@H](C)NC(=O)[C@@H](CC(C)C)NC(=O)[C@@H](CCCCN)NC1=O) [THR79]” as the substance, how does the “activity relative to THR54” value (cancer cell) read?
Answer: Its value is 2-4 times.

Question: What about the cancer cell-killing activity (cancer cell) of the same substance?
Answer: Its cancer cell-killing activity is “showed cancer cell-killing properties”.
